Values joined by “and” are separate entries in the source; they are usually repeats but may differ in a detail not shown here. Equal entries are not always repeated.
Experiments:
[1] = Plasma concentration of RTX (HPLC) after intravesical instillation in healthy cats; format: in vivo, cat
Method: (§1) To examine the effect of intravesical instillation of RTX on the bladder, 6 healthy cats, between the 2-5 years of age, were treated with either 5 (low dose), 25 (mid dose) or 50 mcg (high dose) of RTX (volume was 25 ml; concentrations were 0.2, 1, and 2 mcg/ml). These doses are considered equivalent to administration of 20, 100, or 200 mcg in a human with a volume of 100 ml. A seventh cat received saline only and served as the control. The bladders of the anesthetized cats were emptied and then flushed with sterile saline via a foley urinary catheter. Once the saline was removed, the treatment with RTX (test cats) or saline alone (control cat) was administered over 60 seconds and left in the bladder for 20 minutes.
The bladder of each cat was emptied and blood samples for pharmacokinetic analysis were collected pre-RTX treatment and at 0.5, 1, and 4 hours post RTX treatment.

[2] = Tolerability of intravesical RTX in healthy cats (physical exam, blood count, chemistry); format: in vivo, cat; settings: healthy cats, 5, 25 or 50 mcg intravesical, during or post administration
Method: as §1
A physical exam, complete blood count and chemistry parameters were performed on day 0, 7, and 14. Complete blood count and chemistry parameters were analyzed at the Clinical Pathology Laboratory at the University of Georgia. Food consumption and signs of abnormal urination were monitored through the study period.

[3] = Adverse events in dogs with bladder cancer (Example D); format: in vivo, dog
Method: Dogs with bladder cancer were treated with RTX as follows. Under general anesthesia, RTX was infused directly into the bladder using a foley catheter. RTX remained in the bladder for 30 minutes before removal.

[4] = system: cats with FIC (Feline Idiopathic Cystitis); assay: VSOM in cats with Feline Idiopathic Cystitis; format: in vivo, cat
Method: The effectiveness and safety of a single intravesical instillation with RTX was evaluated for the management of clinical and behavioral signs associated with non-obstructive FIC in cats. The primary effectiveness endpoint was the improvement in a Veterinary-specific Outcome Measure (VSOM) and Cystitis Events Survey on day 28.
The total VSOM is the sum of three individual VSOM scores that each have an integer value in the range of 1 to 5. Each individual VSOM score corresponds to a clinical sign/activity/behavior selected as relevant to FIC for an individual cat by the cat's owner or legal representative with the help of the Investigator. An example of a clinical sign/activity/behavior is pain or resentfulness on palpation. The minimum possible score for each individual VSOM score is 1, which indicates no problem, and the maximum is 5, which indicates an impossible activity/behavior or a maximum severity clinical sign. The minimum and maximum total VSOM scores are 3 and 15. On screening days (e.g., Day 0 and Day 28), the Investigator completed the VSOM questionnaire and assigned a score to each of the 3 clinical signs/activities/behaviours that were selected.
(§2) Treatment success was defined as “a reduction of at least 2 in total VSOM score at Day 3 and 28 compared to VSOM score at day 0.” A decrease of less than 2, no change, or an increase in total score was defined as treatment failure. Cats presenting an increase in any individual VSOM score were considered a treatment failure regardless of total VSOM score.
RTX was provided as a 25 μg/mL (2.4 mL) solution, formulated with polysorbate, glucose, and phosphate buffer, and diluted in saline to 1 μg/mL before instillation. Intravesical instillation: After the cat has reached an adequate anesthesia level, the perineal area was prepared using a standard aseptic technique. After preparation, a urinary catheter (type and size decided on a case by case basis) was placed using aseptic technique. Then, the urinary bladder was emptied and flushed with 20 ml of sterile saline. Once the flush solution was removed, the RTX solution was infused through the urinary catheter over 2 minutes. Once the total volume of the solution is infused, the solution was left in the urinary bladder for 20 min. At the end of this period the IVP (investigational veterinary product) solution was removed. Finally, the urinary catheter was removed, and the perineal area was flushed with 20 ml of saline. The total amount of solution removed from the bladder was recorded.
24 cats were treated and the cohorts and their respective IVP treatments are described in the table 9 below. The cohorts were populated and dosed sequentially. Cats enrolled in Cohorts 2, 3 and 4 were dosed at least 3 days after the previous cohort closed.

[5] = system: cats with FIC (Feline Idiopathic Cystitis); assay: VSOM and Cystitis Events Survey combined effect in FIC cats; format: in vivo, cat; settings: for Cystitis ≥2 and VSOM ≥2 Point success, cats n/N / Cystitis ≥3 and VSOM ≥2 Point success, cats n/N / Cystitis ≥3 and VSOM ≥2 Point success, percent of cats / Cystitis ≥2 and VSOM ≥2 Point success, percent of cats: Day 28
From the text: as §2
The use of the Cystitis Events Survey was exploratory, and no strict definition of success was applied to the results. However, and based on published literature, the results were described as follows: (1) percentage of cats per cohort with an average improvement of 2 or more points and no increase in any individual score on Day 28; and (2) percentage of cats per cohort with an average improvement of 3 or more points and no increase in any individual score on Day 28.
When the results were combined for VSOM improvement of ≥2 and cystitis improvement of ≥3, the effectiveness decreased from 100% to 80% (see Cohort 1). […] Overall, the decrease was approximately 20% in Cohorts 1-2.

[6] = Overall (Cohorts 1-4), Day 28 vs Day 0

In the case of `C=C(C)[C@]12C[C@@H](C)[C@@]34O[C@](Cc5ccccc5)(O[C@@H]1[C@@H]3C=C(COC(=O)Cc1ccc(O)c(OC)c1)C[C@]1(O)C(=O)C(C)=C[C@@H]41)O2` [RTX, resiniferatoxin], the “Plasma concentration of RTX” value ([1]; 5 mcg total intravesical, 0 h, individual cats) was “BQL (BQL = Below the Quantifiable Limit (<50.0 pg/mL).)”, the “Plasma concentration of RTX” value ([1]; 5 mcg total intravesical, 0.5 h, individual cats) was “BQL (BQL = Below the Quantifiable Limit (<50.0 pg/mL).)” and the “Plasma concentration of RTX” value ([1]; 5 mcg total intravesical, 1 h, individual cats) was “BQL (BQL = Below the Quantifiable Limit (<50.0 pg/mL).)”. The “Plasma concentration of RTX” value ([1]; 5 mcg total intravesical, 4 h, individual cats) was “BQL (BQL = Below the Quantifiable Limit (<50.0 pg/mL).)”, the “Plasma concentration of RTX” value ([1]; 25 mcg total intravesical, 0 h, individual cats) was “BQL (BQL = Below the Quantifiable Limit (<50.0 pg/mL).)” and the “Plasma concentration of RTX” value ([1]; 25 mcg total intravesical, 0.5 h, individual cats) was 55.5 pg/ml and 10.1* pg/ml. For the same compound, the “Plasma concentration of RTX” value ([1]; 25 mcg total intravesical, 1 h, individual cats) was “BQL (BQL = Below the Quantifiable Limit (<50.0 pg/mL).)”, the “Plasma concentration of RTX” value ([1]; 25 mcg total intravesical, 4 h, individual cats) was “BQL (BQL = Below the Quantifiable Limit (<50.0 pg/mL).)” and the “Plasma concentration of RTX” value ([1]; 50 mcg total intravesical, 0 h, individual cats) was “BQL (BQL = Below the Quantifiable Limit (<50.0 pg/mL).)”. The “Plasma concentration of RTX” value ([1]; 50 mcg total intravesical, 0.5 h, individual cats) was “BQL (BQL = Below the Quantifiable Limit (<50.0 pg/mL).)”, the “Plasma concentration of RTX” value ([1]; 50 mcg total intravesical, 1 h, individual cats) was “BQL (BQL = Below the Quantifiable Limit (<50.0 pg/mL).)” and the “Plasma concentration of RTX” value ([1]; 50 mcg total intravesical, 4 h, individual cats) was “BQL (BQL = Below the Quantifiable Limit (<50.0 pg/mL).)”. The “Plasma levels of RTX” value ([1]; all 3 groups, all time points (0, 0.5, 1, 4 h) except 0.5 h (25, 50 mcg) and 1 h (25 mcg)) was “below 50 pg/mL”, the RTX in plasma ([1]; all groups, 4 hours) was “below quantifiable levels” and the concentration at 1 h ([1]; cat, plasma, other: intravesical instillation, 25 mcg, 25 mcg total intravesical, 1 h, individual cats) was 0.0135 ng/mL. For the same compound, the concentration at 0.5 h ([1]; cat, plasma, other: intravesical instillation, 50 mcg, 50 mcg total intravesical, 0.5 h, individual cats) was 0.00877 ng/mL, the “Tolerability / clinical adverse effects” value [2] was “well tolerated with no clinical adverse effects noted” and the “Adverse events considered possibly attributable to RTX” value ([3]; Case 03-01, 25 ug (2.8 ug/kg), Day 0) was “Bladder spasm, urinating around catheter (Grade 1)”. For the same compound, the “Adverse events considered possibly attributable to RTX” value ([3]; Case 03-02, 50 ug (2.6 ug/kg)) was “none”, the “Adverse events considered possibly attributable to RTX” value ([3]; Case 41-02, 50 ug (1.3 ug/kg) dosed twice, Day 1) was “crying out after urination (Grade 1)” and the “Adverse events considered possibly attributable to RTX” value ([3]; Case 47-02, 50 ug (2.0 ug/kg), Day 0) was “diarrhea, vomiting, hyperoxia (Grade 1)”. For the same compound, the dose-limiting toxicity ([3]; dogs with bladder cancer) was “No dose-limiting toxicity was observed”, the adverse events ([3]; dogs with bladder cancer, 25-100 ug intravesical) was “minimal, mild, and transient” and the “grade of adverse events” value ([3]; dogs with bladder cancer, all adverse events) was “grade 1”. For the same compound, the Tolerability ([3]; dogs with bladder cancer, all tested doses incl. maximum 50 ug or 2.8 ug/kg dosed twice 28 days apart) was “tolerated at all tested doses”, the “VSOM, Maximum” value ([4]; 25 μg (1 μg/mL), Day 0, n 6) was 12.0 and the “VSOM, Minimum” value ([4]; 25 μg (1 μg/mL), Day 28, n 5) was 0.0. For the same compound, the “VSOM treatment failure, number of cats” value [4, 6] was 5 n, the “VSOM treatment success, number of cats” value [4, 6] was 17 n and the “VSOM treatment success, percent of cats” value [4, 6] was “(77.2%)”. The “Cystitis ≥2 and VSOM ≥2 Point success, cats n/N” value ([5]; 6.25 μg/25 mL (Cohort 2)) was 3/6, the “Cystitis ≥3 and VSOM ≥2 Point success, cats n/N” value ([5]; 6.25 μg/25 mL (Cohort 2)) was 2/6 and the “Cystitis ≥3 and VSOM ≥2 Point success, percent of cats” value ([5]; 6.25 μg/25 mL (Cohort 2)) was “(33.3%)”. The “Cystitis ≥2 and VSOM ≥2 Point success, cats n/N” value ([5]; 12.5 μg/10 mL (Cohort 4)) was 4/6, the “Cystitis ≥2 and VSOM ≥2 Point success, percent of cats” value ([5]; 12.5 μg/10 mL (Cohort 4)) was “(66.7%)” and the “Cystitis ≥3 and VSOM ≥2 Point success, cats n/N” value ([5]; 12.5 μg/10 mL (Cohort 4)) was 4/6. The “Cystitis ≥3 and VSOM ≥2 Point success, percent of cats” value ([5]; 12.5 μg/10 mL (Cohort 4)) was “(66.7%)”, the “Cystitis ≥2 and VSOM ≥2 Point success, cats n/N” value ([5]; 12.5 μg/25 mL (Cohort 3)) was 6/6 and the “Cystitis ≥2 and VSOM ≥2 Point success, percent of cats” value ([5]; 12.5 μg/25 mL (Cohort 3)) was “(100%)”. The “Cystitis ≥3 and VSOM ≥2 Point success, cats n/N” value ([5]; 12.5 μg/25 mL (Cohort 3)) was 6/6, the “Cystitis ≥3 and VSOM ≥2 Point success, percent of cats” value ([5]; 12.5 μg/25 mL (Cohort 3)) was “(100%)” and the “Cystitis ≥2 and VSOM ≥2 Point success, cats n/N” value ([5]; 25 μg/25 mL (Cohort 1)) was 4/5. For the same compound, the “Cystitis ≥2 and VSOM ≥2 Point success, percent of cats” value ([5]; 25 μg/25 mL (Cohort 1)) was “(80%)”, the “Cystitis ≥3 and VSOM ≥2 Point success, cats n/N” value ([5]; 25 μg/25 mL (Cohort 1)) was 4/5 and the “decrease in effectiveness when VSOM and cystitis results are combined” value ([5]; Cohorts 1-2, overall) was “approximately 20%”.

Reference: US20230270713A1, “Administration of Resiniferatoxin For Treatment of Bladder Pain or Bladder Cancer” (Sorrento Therapeutics, Inc., priority 2020, published 2023)
